Experimental data from US20240025887A1, “THIENYL AND CYCLOALKYL AMINOPYRIMIDINE COMPOUNDS AS INHIBITORS OF NUAK KINASES, COMPOSITIONS AND USES THEREOF” (Ontario Institute for Cancer Research (OICR), priority 2021, published 2024).

Key:
Format in all cases: biochemical
[1] = molecular target: T1, Aurora A (Homo sapiens, UniProt O14965); assay: Aurora A counter screen; details: read-out: AUR-A (IC50)
T1 sequence (O14965 1-403): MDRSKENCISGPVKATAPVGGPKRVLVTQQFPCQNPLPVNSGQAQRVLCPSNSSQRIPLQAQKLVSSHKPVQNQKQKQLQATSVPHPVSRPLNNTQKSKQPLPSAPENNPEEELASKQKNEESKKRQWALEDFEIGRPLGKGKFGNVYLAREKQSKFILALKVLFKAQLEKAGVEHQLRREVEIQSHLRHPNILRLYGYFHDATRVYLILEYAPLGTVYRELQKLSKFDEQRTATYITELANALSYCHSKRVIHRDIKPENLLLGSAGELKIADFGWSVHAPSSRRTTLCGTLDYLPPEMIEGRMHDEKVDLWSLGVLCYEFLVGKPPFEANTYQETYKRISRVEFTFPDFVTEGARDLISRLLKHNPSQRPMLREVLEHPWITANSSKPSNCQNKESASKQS
Protocol: (§1) To identify small molecule NUAK inhibitors, a biochemical NUAK2 enzymatic assay was outsourced to Eurofins. This assay was done radiometrically using full-length, recombinant enzyme. NUAK2 (h) was incubated with 8 mM MOPS pH 7.0, 0.2 mM EDTA, 300 μM […], 10 mM magnesium acetate and […] (specific activity and concentration as required). The reaction was initiated by the addition of the Mg/ATP mix. After incubation for 40 minutes at room temperature, the reaction was stopped by the addition of phosphoric acid to a concentration of 0.5%. 10 μL of the reaction was then spotted onto a P30 filter mat and washed four times for 4 minutes in 0.425% phosphoric acid and once in methanol prior to drying and scintillation counting. Compounds were routinely counter screened against Aurora A and NUAK1. The results are shown in Table 1 where IC50s are reported the following ranges: A: 0.1-10 nM; B: 11-100 nM; C: 101-1000 nM; D: >1000 nM for the compounds of Formula I)

[2] = molecular target: T2, NUAK1 (Homo sapiens, UniProt O60285); assay: NUAK1 counter screen
T2 sequence (O60285 1-661): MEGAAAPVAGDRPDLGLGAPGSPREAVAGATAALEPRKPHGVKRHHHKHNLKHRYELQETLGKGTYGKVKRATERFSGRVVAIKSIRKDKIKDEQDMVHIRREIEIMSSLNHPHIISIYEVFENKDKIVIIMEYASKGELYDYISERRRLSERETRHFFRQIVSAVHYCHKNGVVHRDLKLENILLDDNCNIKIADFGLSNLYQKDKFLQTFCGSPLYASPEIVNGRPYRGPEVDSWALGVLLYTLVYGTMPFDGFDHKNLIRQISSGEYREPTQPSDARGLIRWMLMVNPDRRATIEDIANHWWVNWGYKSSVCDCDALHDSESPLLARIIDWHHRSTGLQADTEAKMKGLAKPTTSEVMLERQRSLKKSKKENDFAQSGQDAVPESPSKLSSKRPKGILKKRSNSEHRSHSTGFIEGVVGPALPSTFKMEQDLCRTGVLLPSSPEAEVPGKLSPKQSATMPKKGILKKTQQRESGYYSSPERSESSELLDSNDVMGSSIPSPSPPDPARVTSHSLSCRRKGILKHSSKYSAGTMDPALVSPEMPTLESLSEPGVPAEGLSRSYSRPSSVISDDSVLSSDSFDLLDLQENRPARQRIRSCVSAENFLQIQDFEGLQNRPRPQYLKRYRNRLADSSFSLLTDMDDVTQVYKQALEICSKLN
Protocol: as §1

[3] = molecular target: T3, NUAK2 (h) (Homo sapiens, UniProt Q9H093); assay: NUAK2 enzymatic assay (radiometric, Eurofins); details: for IC50: radiometric, full-length recombinant enzyme; for AUR-A (IC50, nM)/NUAK2 (IC50, nM): NUAK2 selectivity over Aurora-A, ratio of IC50s
T3 construct: This assay was done radiometrically using full-length, recombinant enzyme; purchased Eurofins
T3 sequence (Q9H093 1-628): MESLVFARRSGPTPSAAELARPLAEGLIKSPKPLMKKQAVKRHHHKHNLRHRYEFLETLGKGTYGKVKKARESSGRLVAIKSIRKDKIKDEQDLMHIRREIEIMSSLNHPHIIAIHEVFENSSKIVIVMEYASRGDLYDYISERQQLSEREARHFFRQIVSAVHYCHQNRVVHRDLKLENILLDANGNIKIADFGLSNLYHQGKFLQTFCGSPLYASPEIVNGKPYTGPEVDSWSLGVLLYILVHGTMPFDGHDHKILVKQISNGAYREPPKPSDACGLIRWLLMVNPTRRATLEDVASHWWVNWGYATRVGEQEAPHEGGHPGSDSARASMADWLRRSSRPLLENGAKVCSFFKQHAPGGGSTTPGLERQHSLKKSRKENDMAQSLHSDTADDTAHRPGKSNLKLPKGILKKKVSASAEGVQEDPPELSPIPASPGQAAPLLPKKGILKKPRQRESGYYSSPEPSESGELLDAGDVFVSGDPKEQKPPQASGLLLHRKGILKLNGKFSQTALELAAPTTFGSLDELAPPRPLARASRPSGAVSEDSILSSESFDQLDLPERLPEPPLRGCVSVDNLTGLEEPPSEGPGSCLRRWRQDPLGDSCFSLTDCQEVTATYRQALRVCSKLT
Protocol: as §1

SMILES	IC50 [1]	IC50 [2]	IC50 [3]	AUR-A (IC50, nM)/NUAK2 (IC50, nM) [3]
NC(=O)c1sccc1Nc1nc(Nc2ccc(N3CCN4CCOC[C@H]4C3)cc2OC(F)F)ncc1Cl [Compound I-45, (R)-3-((5-chloro-2-((2-(difluoromethoxy)-4-(hexahydropyrazino[2,1-c][1,4]oxazin-8(1H)-yl)phenyl)amino)pyrimidin-4-yl)amino)thiophene-2-carboxamide]	101 to 1000 nM	11 to 100 nM	11 to 100 nM	
NC(=O)c1sccc1Nc1nc(Nc2ccc(N3CCN4CCC[C@@H]4C3)cc2OC(F)F)ncc1Cl [Compound I-44, (R)-3-((5-chloro-2-((2-(difluoromethoxy)-4-(hexahydropyrrolo[1,2-a]pyrazin-2(1H)-yl)phenyl)amino)pyrimidin-4-yl)amino)thiophene-2-carboxamide]	101 to 1000 nM	11 to 100 nM	0.1 to 10 nM	137
CN1CCN(c2ccc(Nc3ncc(Cl)c(Nc4ccsc4C(N)=O)n3)c(C(F)(F)F)c2)CC1 [Compound I-46, 3-((5-chloro-2-((4-(4-methylpiperazin-1-yl)-2-(trifluoromethyl)phenyl)amino)pyrimidin-4-yl)amino)thiophene-2-carboxamide]	> 1000 nM	11 to 100 nM	11 to 100 nM	
CC(C)Oc1cc(N2CCN(C)CC2)ccc1Nc1ncc(Cl)c(N[C@@H]2CCCC[C@@H]2C(N)=O)n1 [Compound C-6, reference compound]	> 1000 nM	> 1000 nM	101 to 1000 nM	14
C[C@H]1CN(c2ccc(Nc3ncc(Cl)c(Nc4ccsc4C(N)=O)n3)c(OC(F)F)c2)CCN1C [Compound I-21, (S)-3-((5-chloro-2-((2-(difluoromethoxy)-4-(3,4-dimethylpiperazin-1-yl)phenyl)amino)pyrimidin-4-yl)amino)thiophene-2-carboxamide]	11 to 100 nM	0.1 to 10 nM	0.1 to 10 nM	
CN1CCN(c2ccc(Nc3ncc(F)c(Nc4ccsc4C(N)=O)n3)c(OC(F)F)c2)CC1 [Compound I-37, 3-((2-((2-(difluoromethoxy)-4-(4-methylpiperazin-1-yl)phenyl)amino)-5-fluoropyrimidin-4-yl)amino)thiophene-2-carboxamide]	101 to 1000 nM	11 to 100 nM	11 to 100 nM	
COc1c(Nc2ncc(Cl)c(Nc3ccsc3C(N)=O)n2)ccc(N2CCN(C)CC2)c1F [Compound C-2, reference compound]	101 to 1000 nM	0.1 to 10 nM	0.1 to 10 nM	71
CCN1CCN(c2ccc(Nc3ncc(Cl)c(Nc4cscc4C(N)=O)n3)c(OC(F)F)c2)CC1 [Compound I-14, 4-((5-chloro-2-((2-(difluoromethoxy)-4-(4-ethylpiperazin-1-yl)phenyl)amino)pyrimidin-4-yl)amino)thiophene-3-carboxamide]	101 to 1000 nM	0.1 to 10 nM	0.1 to 10 nM	
NC(=O)c1sccc1Nc1nc(Nc2ccc(N3CCN4CCOC[C@@H]4C3)cc2OC(F)F)ncc1Cl [Compound I-49, (S)-3-((5-chloro-2-((2-(difluoromethoxy)-4-(hexahydropyrazino[2,1-c][1,4]oxazin-8(1H)-yl)phenyl)amino)pyrimidin-4-yl)amino)thiophene-2-carboxamide]	101 to 1000 nM	11 to 100 nM	11 to 100 nM	
COc1cc(N2CCC(N3CCN(C)CC3)CC2)ccc1Nc1ncc(Cl)c(Nc2ccsc2C(N)=O)n1 [Compound C-3, reference compound]	101 to 1000 nM	11 to 100 nM	11 to 100 nM	6
NC(=O)c1ccsc1Nc1nc(Nc2ccc(N3CCN(CC(F)(F)F)CC3)cc2OC(F)F)ncc1Cl [Compound I-34, 2-((5-chloro-2-((2-(difluoromethoxy)-4-(4-(2,2,2-trifluoroethyl)piperazin-1-yl)phenyl)amino)pyrimidin-4-yl)amino)thiophene-3-carboxamide]	101 to 1000 nM	101 to 1000 nM	101 to 1000 nM	

Second part, the compound after the results:

IC50 [1]	IC50 [2]	IC50 [3]	AUR-A (IC50, nM)/NUAK2 (IC50, nM) [3]	SMILES
11 to 100 nM	11 to 100 nM	0.1 to 10 nM		C[C@@H]1CN(C2CCN(c3ccc(Nc4ncc(Cl)c(Nc5ccsc5C(N)=O)n4)c(OC(F)F)c3)CC2)C[C@@H](C)N1C [Compound I-69, 3-((5-chloro-2-((2-(difluoromethoxy)-4-(4-((3R,5R)-3,4,5-trimethylpiperazin-1-yl)piperidin-1-yl)phenyl)amino)pyrimidin-4-yl)amino)thiophene-2-carboxamide]
101 to 1000 nM	11 to 100 nM	11 to 100 nM		CN1CCN(C2CCN(c3ccc(Nc4ncc(Cl)c(N[C@@H]5CCC[C@@H]5C(N)=O)n4)c(OC(F)F)c3)CC2)CC1 [Compound I-83, (1S,2R)-2-((5-chloro-2-((2-(difluoromethoxy)-4-(4-(4-methylpiperazin-1-yl)piperidin-1-yl)phenyl)amino)pyrimidin-4-yl)amino)cyclopentane-1-carboxamide]
101 to 1000 nM	0.1 to 10 nM	11 to 100 nM		CN(C)[C@@H]1CCN(c2ccc(Nc3ncc(Cl)c(Nc4ccsc4C(N)=O)n3)c(OC(F)F)c2)C1 [Compound I-55, (R)-3-((5-chloro-2-((2-(difluoromethoxy)-4-(3-(dimethylamino)pyrrolidin-1-yl)phenyl)amino)pyrimidin-4-yl)amino)thiophene-2-carboxamide]
101 to 1000 nM	11 to 100 nM	11 to 100 nM		C[C@@H]1CN(C2CCN(c3ccc(Nc4ncc(C(F)(F)F)c(Nc5ccsc5C(N)=O)n4)c(OC(F)F)c3)CC2)C[C@H](C)N1C [Compound I-67, 3-((2-((2-(difluoromethoxy)-4-(4-((3R,5S)-3,4,5-trimethylpiperazin-1-yl)piperidin-1-yl)phenyl)amino)-5-(trifluoromethyl)pyrimidin-4-yl)amino)thiophene-2-carboxamide]
101 to 1000 nM	11 to 100 nM	11 to 100 nM		CN1CCC2(CC1)CCN(c1ccc(Nc3ncc(Cl)c(Nc4ccsc4C(N)=O)n3)c(OC(F)F)c1)C2 [Compound I-53, 3-((5-chloro-2-((2-(difluoromethoxy)-4-(8-methyl-2,8-diazaspiro[4.5]decan-2-yl)phenyl)amino)pyrimidin-4-yl)amino)thiophene-2-carboxamide]
101 to 1000 nM	11 to 100 nM	0.1 to 10 nM		C[C@@H]1CN(C2CCN(c3ccc(Nc4ncc(Cl)c(Nc5ccsc5C(N)=O)n4)c(OC(F)F)c3)CC2)C[C@H](C)N1C [Compound I-64, 3-((5-chloro-2-((2-(difluoromethoxy)-4-(4-((3R,5S)-3,4,5-trimethylpiperazin-1-yl)piperidin-1-yl)phenyl)amino)pyrimidin-4-yl)amino)thiophene-2-carboxamide]
